# Data as given in patent publication US20050227355A1, “Serum-free cell culture media” (priority 1996, published 2005).
# “Also recorded” adds a separate entry of the source.
# Assays:
# adherent cells = assay: Growth stimulating effect of alcohols in adherent cell culture (Example 10); assay type: cell-based; details: concentrations around 0.1%
# Text: Cell culture was again carried out as described in Example 8, but with the addition of a number of alcohols rather than sterols.
# Test concentration: 1×=0.1%, or 5×=0.5%.
# [1] = test system: Vero, CHO-K1 and 1E6 hybridoma cells; assay: Cell growth and morphology in media containing sterols other than cholesterol (Example 8); assay type: cell-based; details: test concentration 2 μg/ml
# Experimental: The basal media used were DME/F12 for adherent cells, and RPMI-X for suspension cells. The basal media were supplemented by SSR2 described above, i.e. a solution containing 20 mg/ml PLURONIC F68, about 4 mM EDTA, about 3 mM Fe, about 40 mM sodium citrate/citric acid, about 3 mM aurintricarboxylic acid and about 1% trace elements. […] For hybridoma cells, this was still further supplemented by ethanolamine at 20 μM. Each cul-ture was run in duplicate. As a control, cholesterol was also used, but in this case the basal medium was supplemented by ‘Solution Cx’ or ‘Solution Dx’ described above, as appropriate to the cell type. The negative controls referred to below were in each case a cell culture containing no test substance (sterol). Cells were cultivated through 2 passages for adherent cells, and 3 passages for the hybridoma line having regard to the greater difficulty of morphological scoring in suspension cultures, this being compensated by the longer culture period. All cultures of the same experiment were subcultured using an identical split ratio, for example 1:10; this ratio being adjusted in the individual experiments to suit the growth rate of the positive control (see above). […] Then adherent cells were trypsinized and subcultured further for the second passage—followed by counting the number of cells when confluent for the second time. Hybridoma cells, growing in suspension, were simply diluted in medium for each new passage. Counting of all kinds of cells were generally performed using a standard Bürker chamber, and viability determined by Trypan Blue exclusion (only viable cells were counted). In some experiments, where feasible, cells were counted directly in the microscope viewing field using a calibrated grid. […] The morphological index is mainly based on three properties: single cell morphology, number of cells, and the degree of uniform distribution of cells around the culture surface (‘cellular behaviour’).
# [2] = Stability of sterol against precipitation in medium; assay type: physicochemical
# Experimental: The optimum sterol for cell culture should meet the following specifications: a) be stable against precipitation in medium at 37° C., b) stimulate cell growth and viability as well as does cholesterol, or better, and c) for adherent cells: produce a high surface tension in the medium for optimum adherence of the cells to the surface by hydrophobic forces.
# Hybridoma cells = assay: Growth promoting effect of alcohols on hybridoma cells (Example 1); assay type: cell-based, Mouse; details: for effect on cell growth (inhibition of cell growth): RPMI-SR3 protein-free medium, alcohol up to 1.0% by vol
# Experimental: • a) Hybridoma cells were cultured in RPMI 1640 supplemented with solutions A and B, described above plus 20 mM ethanolamine (referred to as RPMI-SR3), and by way of comparison in the same medium further supplemented with 10 mg/ml albumen (5% by vol.) or in RPMI 1640 supplemented with 10% v/v horse serum.
# 1E6 Mouse hybridoma = assay: Sterol analogues in suspended cell culture (Example 8); assay type: cell-based; details: test concentration 2 μg/ml
# Experimental: The basal media were supplemented by SSR2 described above, i.e. a solution containing 20 mg/ml PLURONIC F68, about 4 mM EDTA, about 3 mM Fe, about 40 mM sodium citrate/citric acid, about 3 mM aurintricarboxylic acid and about 1% trace elements. […] Each cul-ture was run in duplicate. As a control, cholesterol was also used, but in this case the basal medium was supplemented by ‘Solution Cx’ or ‘Solution Dx’ described above, as appropriate to the cell type. The negative controls referred to below were in each case a cell culture containing no test substance (sterol).
# [3] = Surface tension of the medium; assay type: physicochemical
smiles,measurement,setting,value
CC(O)CO (centres unmarked) [propylene glycol],effects on cell growth and viability,adherent cells,positive effects on cell growth and viability
CC[C@H](CC[C@@H](C)[C@H]1CC[C@H]2[C@@H]3CC=C4C[C@@H](O)CC[C@]4(C)[C@H]3CC[C@]12C)C(C)C [β-sitosterol],cell growth and viability / suitability as replacement of cholesterol,[1],functions well as a stimulant of cell growth and viability
same,stability in medium,[2],less than satisfactory
CC(C)CCC[C@@H](C)[C@H]1CC[C@H]2[C@@H]3CC=C4C[C@@H](O)CC[C@]4(C)[C@H]3CC[C@]12C [Cholesterol],stability in medium,[2],somewhat unstable in media
same,solubility in the final medium at storage temperature,"[2]; 4° C., with PLURONIC F68 and ethanol",kept in solution
same,solubility in the final medium at cultivation temperature,"[2]; 37° C., cell density below 10^5 cells/ml",gradually precipitate
OCCO [Ethylene Glycol],effects on cell growth and viability,adherent cells,positive effects on cell growth and viability
CO [Methanol],effect on cell growth (inhibition of cell growth),Hybridoma cells,positive effects on cell growth
CCO [Ethanol],effect on cell growth (inhibition of cell growth),Hybridoma cells,positive effects on cell growth
same,effect on cell growth (inhibition of cell growth),Hybridoma cells; listed as ethanol,negative inhibition (i.e. promotion) of cell growth
same,growth promoting effect in protein or serum supplemented media,Hybridoma cells; medium with 10 mg/ml albumen or 10% v/v horse serum,no growth promoting effect; also recorded: not apparent
same,effects on cell growth and viability,adherent cells,positive effects on cell growth and viability
C[C@H](CCC(=O)O)[C@H]1CC[C@H]2[C@@H]3[C@H](O)C[C@@H]4C[C@H](O)CC[C@]4(C)[C@H]3C[C@H](O)[C@]12C [Cholic acid],substitution for cholesterol in suspended cell culture,1E6 Mouse hybridoma,appears possible to substitute cholic acid for cholesterol
same,surface tension of the medium,[3],low surface tension
CC(=O)O[C@H]1CC[C@@]2(C)C(=CC[C@H]3[C@@H]4CC[C@H]([C@H](C)CCCC(C)C)[C@@]4(C)CC[C@@H]32)C1 [Cholesteryl Acetate],cell growth and viability / suitability as replacement of cholesterol,[1],barely affected
same,cell growth and viability / suitability as replacement of cholesterol,[1]; listed as cholesteryl acetate,good results
same,stability in medium,[2],stable in solution
